Literature values, collected in patent publication US7648982B2 (priority 2003, dated 2010).

Experiments:
[1] = in vivo, iv
[2] = in vivo

Compound: CN1CC[C@]23c4c5ccc(O)c4O[C@H]2[C@@H](O)C=C[C@H]3[C@H]1C5 [morphine]
- delay of peak drug effect from the time of injection [1]: 10 to 15 min
- K10 [2]: Morphine_K10 = 0.07051
- K12 [2]: Morphine_K12 = 0.1273
- K13 [2]: Morphine_K13 = 0.01826
- K21 [2]: Morphine_K21 = 0.02596
- K31 [2]: Morphine_K31 = 0.001633
- Ke0 [2]: Morphine_Ke0 = 0.005
- V1 [2]: Morphine_V1 = 17.8
